Source: PMC7747700, “Enantiomer-specific activities of an LRH-1 and SF-1 dual agonist” (Scientific Reports, 2020)
Blank lines part the entries; values can stand above or below the molecule they belong to.

Legend:
H390A-LRH-1 = target: T1, H390A-LRH-1 (Homo sapiens, UniProt O00482, H390A); set-up: method as in PMID 27694446; settings: cited from earlier work
T1 construct: expressed in transfected cells; host or cells: Hela cells

[1] = target: T2, Liver receptor homolog-1 (LRH-1) ligand binding domain (UniProt O00482 299-541); assay: crystal structure; LRH-1 LBD (His-tag cleaved) saturated with SS-RJW100, combined with the Tif2 NR Box 3 peptide, 6 mg/ml; hanging drop vapor diffusion at 18 °C with microseeding; 0.05 M sodium acetate pH 4.6, 5–11% PEG4000; settings: both partners purified
T2 construct: also called LRH-1 LBD
T2 sequence (O00482 299-541): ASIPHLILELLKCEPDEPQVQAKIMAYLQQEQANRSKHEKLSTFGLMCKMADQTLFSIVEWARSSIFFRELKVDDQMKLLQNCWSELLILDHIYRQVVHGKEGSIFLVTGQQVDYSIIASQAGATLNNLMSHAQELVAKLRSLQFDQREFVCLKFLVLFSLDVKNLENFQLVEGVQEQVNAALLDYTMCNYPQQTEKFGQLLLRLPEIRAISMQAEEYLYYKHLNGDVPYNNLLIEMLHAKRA

T1 sequence (O00482 whole entry H390A): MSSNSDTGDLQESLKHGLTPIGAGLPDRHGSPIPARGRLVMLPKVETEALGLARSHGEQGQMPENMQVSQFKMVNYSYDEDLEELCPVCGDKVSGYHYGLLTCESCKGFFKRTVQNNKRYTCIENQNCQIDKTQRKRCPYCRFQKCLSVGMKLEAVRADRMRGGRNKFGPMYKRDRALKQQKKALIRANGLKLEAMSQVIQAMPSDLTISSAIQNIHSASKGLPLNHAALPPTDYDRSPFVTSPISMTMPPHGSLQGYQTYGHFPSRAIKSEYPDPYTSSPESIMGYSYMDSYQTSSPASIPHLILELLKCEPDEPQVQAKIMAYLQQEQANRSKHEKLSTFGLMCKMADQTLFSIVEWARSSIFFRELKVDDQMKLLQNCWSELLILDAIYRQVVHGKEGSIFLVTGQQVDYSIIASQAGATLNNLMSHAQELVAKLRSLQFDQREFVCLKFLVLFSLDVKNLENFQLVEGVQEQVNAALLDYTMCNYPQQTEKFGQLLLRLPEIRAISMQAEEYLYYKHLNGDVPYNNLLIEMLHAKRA

Molecule: CCC/C=C(\CCC)C1=C(c2ccccc2)[C@]2(Nc3ccccc3)CCC[C@@H]2C1 [GSK8470]
activation of H390A-LRH-1 (H390A-LRH-1): cannot activate

binding result [1]: binds
B1: peptide corresponding to the NR Box 3 of the Tif2 coactivator (peptide)
peptide: KENALLRYLLDKDDT
notes: source: synthetic peptide (RS Synthesis)
